{
  "source": "patent US9586962B2",
  "about": "“Disubstituted octahydropyrrolo [3,4-C] pyrroles as orexin receptor modulators” (Janssen Pharmaceutica NV, priority 2011, dated 2017)",
  "data": [
    {"target": "human orexin 2 receptor (Homo sapiens (Human), UniProt O43614)", "sequence (O43614 whole entry)": "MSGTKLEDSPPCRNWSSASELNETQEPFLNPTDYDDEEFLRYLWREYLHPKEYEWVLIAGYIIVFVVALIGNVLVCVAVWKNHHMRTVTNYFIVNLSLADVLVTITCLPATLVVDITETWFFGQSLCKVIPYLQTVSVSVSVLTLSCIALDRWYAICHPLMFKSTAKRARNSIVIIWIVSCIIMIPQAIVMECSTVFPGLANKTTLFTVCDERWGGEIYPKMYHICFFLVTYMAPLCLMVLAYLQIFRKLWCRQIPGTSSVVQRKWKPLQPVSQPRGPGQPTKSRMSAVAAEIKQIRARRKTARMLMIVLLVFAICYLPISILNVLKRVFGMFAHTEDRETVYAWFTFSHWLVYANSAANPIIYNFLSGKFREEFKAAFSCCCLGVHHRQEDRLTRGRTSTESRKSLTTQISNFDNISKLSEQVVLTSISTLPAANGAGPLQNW", "experiment": "Human orexin 2 receptor Ca2+ mobilization assay (FLIPR, PFSK cells, orexin B 100 nM)", "format": "cell-based", "settings": "modified Cheng-Prusoff correction, read-out: OR 2 Kb", "protocol": "Human Orexin 2 Receptor Ca^2+ Mobilization Assay\nCells were seeded on to 96-well Packard viewplates at a density of 50,000 cells/well and incubated overnight at 37° C., 5% CO2. The cells were dye-loaded with 4 μM Ca^2+ dye Fluo-3AM in serum-free DMEM/F-12 with 2.5 mM probenecid and incubated at 37° C., 5% CO2 for one hour. Cells were pre-incubated with compounds (diluted in DMEM/F-12) for 30 minutes before agonist (orexin B, 100 nM) stimulation. Ligand-induced Ca^2+ release was measured using a Fluorometric Imaging Plate Reader (FLIPR, Molecular Devices, Sunnyvale, Calif.). Functional responses were measured as peak fluorescence intensity minus basal. The concentration of agonist that produced a half-maximal response is represented by the EC50 value. Antagonistic potency values were converted to apparent pKB values using a modified Cheng-Prusoff correction. Apparent pKB=−log IC50/1+[conc agonist/EC50]. Data are expressed as mean±S.E.M, the designation of NT means not tested.", "units": {"Kb": "nM"}, "values": [
      {"smiles": "Cc1ccc(-n2nccn2)c(C(=O)N2CC3CN(c4nccc(-c5ccccc5)n4)CC3C2)c1", "note": "(centres unmarked) [Example 127, 2-{[5-Methyl-2-(2H-1,2,3-triazol-2-yl)phenyl]carbonyl}-5-(4-phenylpyrimidin-2-yl)octahydropyrrolo[3,4-c]pyrrole]", "Kb": 20},
      {"smiles": "COc1cc(N2CC3CN(C(=O)c4ccc(F)cc4-n4nccn4)CC3C2)nc(N(C)C)n1", "note": "(centres unmarked) [Example 7, 4-[5-{[4-Fluoro-2-(2H-1,2,3-triazol-2-yl)phenyl]carbonyl}hexahydropyrrolo[3,4-c]pyrrol-2(1H)-yl]-6-methoxy-N,N-dimethylpyrimidin-2-amine]", "Kb": 13},
      {"smiles": "Cc1nc(N2CC3CN(C(=O)c4ccccc4-n4nccn4)CC3C2)ncc1F", "note": "(centres unmarked) [Example 290, 2-(5-Fluoro-4-methylpyrimidin-2-yl)-5-{[2-(2H-1,2,3-triazol-2-yl)phenyl]carbonyl}octahydropyrrolo[3,4-c]pyrrole]", "Kb": 7},
      {"smiles": "CN(C)c1cc(N2CC3CN(C(=O)c4cc(F)ccc4-n4nccn4)CC3C2)nc(C(F)(F)F)n1", "note": "(centres unmarked) [Example 9, 6-[5-{[5-Fluoro-2-(2H-1,2,3-triazol-2-yl)phenyl]carbonyl}hexahydropyrrolo[3,4-c]pyrrol-2(1H)-yl]-N,N-dimethyl-2-(trifluoromethyl)pyrimidin-4-amine]", "Kb": 56},
      {"smiles": "COc1ccc(-n2nccn2)c(C(=O)N2CC3CN(c4cnc5cc(F)c(F)cc5n4)CC3C2)c1", "note": "(centres unmarked) [Example 245, (5-(6,7-Difluoroquinoxalin-2-yl)hexahydropyrrolo[3,4-c]pyrrol-2(1H)-yl)(5-methoxy-2-(2H-1,2,3-triazol-2-yl)phenyl)methanone]", "Kb": 15},
      {"smiles": "Cc1cc(C)nc(N2CC3CN(C(=O)c4ccccc4-c4ccccc4)CC3C2)n1", "note": "(centres unmarked) [Example 44, 2-(Biphenyl-2-ylcarbonyl)-5-(4,6-dimethylpyrimidin-2-yl)octahydropyrrolo[3,4-c]pyrrole]", "Kb": 63},
      {"smiles": "O=C(c1ccccc1-n1nccn1)N1CC2CN(c3nccc(-c4ccccc4)n3)CC2C1", "note": "(centres unmarked) [Example 131, 2-(4-Phenylpyrimidin-2-yl)-5-{[2-(2H-1,2,3-triazol-2-yl)phenyl]carbonyl}octahydro pyrrolo[3,4-c]pyrrole]", "Kb": 79},
      {"smiles": "Cc1cc(C)nc(N2CC3CN(C(=O)c4c(F)cccc4-c4ncccn4)CC3C2)n1", "note": "(centres unmarked) [Example 73, 2-(4,6-Dimethylpyrimidin-2-yl)-5-[(2-fluoro-6-pyrimidin-2-ylphenyl)carbonyl]octahydropyrrolo[3,4-c]pyrrole]", "Kb": 5},
      {"smiles": "Cc1cc(N2CC3CN(C(=O)c4ccccc4-n4nccn4)CC3C2)nc(N(C)C)n1", "note": "(centres unmarked) [Example 120, N,N,4-Trimethyl-6-[5-{[2-(2H-1,2,3-triazol-2-yl)phenyl]carbonyl}hexahydropyrrolo[3,4-c]pyrrol-2(1H)-yl]pyrimidin-2-amine]", "Kb": 13},
      {"smiles": "O=C(c1ccccc1-c1ccccc1)N1CC2CN(c3cnc4ccccc4n3)CC2C1", "note": "(centres unmarked) [Example 168, 2-[5-(Biphenyl-2-ylcarbonyl)hexahydropyrrolo[3,4-c]pyrrol-2(1H)-yl]quinoxaline]", "Kb": 126},
      {"smiles": "Cc1nc(N2CC3CN(C(=O)c4cccc(F)c4-c4ncccn4)CC3C2)nc(C)c1C", "note": "(centres unmarked) [Example 239, (3-Fluoro-2-(pyrimidin-2-yl)phenyl)(5-(4,5,6-trimethylpyrimidin-2-yl)hexahydropyrrolo[3,4-c]pyrrol-2(1H)-yl)methanone]", "Kb": 4},
      {"smiles": "COc1cc(OC)nc(N2CC3CN(C(=O)c4ccccc4-n4nccn4)CC3C2)n1", "note": "(centres unmarked) [Example 84, 2-(4,6-Dimethoxypyrimidin-2-yl)-5-{[2-(2H-1,2,3-triazol-2-yl)phenyl]carbonyl}octahydropyrrolo[3,4-c]pyrrole]", "Kb": 25},
      {"smiles": "Cc1cnc(C)c(N2CC3CN(C(=O)c4cc(F)ccc4-c4ncccn4)CC3C2)n1", "note": "(centres unmarked) [Example 212, [5-(3,6-Dimethyl-pyrazin-2-yl)-hexahydro-pyrrolo[3,4-c]pyrrol-2-yl]-(5-fluoro-2-pyrimidin-2-yl-phenyl)-methanone]", "Kb": 32},
      {"smiles": "COc1cc(OC)nc(N2CC3CN(C(=O)c4ccccc4-c4ccccn4)CC3C2)n1", "note": "(centres unmarked) [Example 70, 2-(4,6-Dimethoxypyrimidin-2-yl)-5-[(2-pyridin-2-ylphenyl)carbonyl]octahydro-pyrrolo[3,4-c]pyrrole]", "Kb": 40}
    ]}
  ]
}
